Test results reported in patent US20240208970A1, “SUBSTITUTED HYDANTOIN COMPOUNDS, METHODS FOR PREPARATION THEREOF AND USE THEREOF IN THE TREATMENT AND/OR PREVENTION OF A CORONA VIRUS DISEASE” (priority 2021, published 2024).

Molecular target: SARS-CoV-2 M^pro protease (Severe acute respiratory syndrome coronavirus 2 (2019-nCoV) (SARS-CoV-2), UniProt P0DTD1)
Assay: biochemical
Type: biochemical
Conditions: Table 5A; M^pro 75 nM, substrate 10 μM

Row | Structure (SMILES) | IC50
1 | Cc1c(Br)cncc1N1C(=O)NC2(CC(c3ccccc3)C2)C1=O (stereo not shown) [Compound 7, 7-(5-bromo-4-methylpyridin-3-yl)-2-phenyl-5,7-diazaspiro[3.4]octane-6,8-dione] | 2000 nM
2 | Cc1ccncc1N1C(=O)NC2(CC(c3ccccc3)C2)C1=O (stereo not shown) [Compound 11, 7-(4-methylpyridin-3-yl)-2-phenyl-5,7-diazaspiro[3.4]octane-6,8-dione] | 2300 nM
3 | CC(C)(C)C1CC2(C1)NC(=O)N(c1cncc(F)c1)C2=O (stereo not shown) [Compound 12, 2-tert-butyl-7-(5-fluoropyridin-3-yl)-5,7-diazaspiro[3.4]octane-6,8-dione] | 5500 nM
4 | O=C1NC2(CC(C3CCC3)C2)C(=O)N1c1cncc(Br)c1 (stereo not shown) [Compound 14, 7-(5-bromopyridin-3-yl)-2-cyclobutyl-5,7-diazaspiro[3.4]octane-6,8-dione] | 6000 nM

Same assay, conditions: Tables 5B-5E; M^pro 75 nM, substrate 10 μM

Row | Structure (SMILES) | IC50
5 | O=C1NC2(CC(c3ccccc3Cl)C2)C(=O)N1c1cncc2cccnc12 (stereo not shown) [Compound 50, 2-(2-chlorophenyl)-7-(1,6-naphthyridin-8-yl)-5,7-diazaspiro[3.4]octane-6,8-dione] | 105 nM
6 | O=C1NC2(CC(c3cccc(Cl)c3)C2)C(=O)N1c1cncc2ccccc12 (stereo not shown) [Compound 25, 2-(3-chlorophenyl)-7-(isoquinolin-4-yl)-5,7-diazaspiro[3.4]octane-6,8-dione] | 931 nM
7 | Cc1ccnc(F)c1N1C(=O)NC2(CC(c3ccccc3Cl)C2)C1=O (stereo not shown) [Compound 90, 2-(2-chlorophenyl)-7-(2-fluoro-4-methylpyridin-3-yl)-5,7-diazaspiro[3.4]octane-6,8-dione] | 223 nM
8 | Cc1ccccc1C1CC2(C1)NC(=O)N(c1cncc3ccccc13)C2=O (stereo not shown) [Compound 23, 7-(isoquinolin-4-yl)-2-(o-tolyl)-5,7-diazaspiro[3.4]octane-6,8-dione] | 925 nM
9 | CN1C(=O)N(c2cncc3ccccc23)C(=O)C12CC(C1CCC1)C2 (stereo not shown) [Compound 69, 2-cyclobutyl-7-(isoquinolin-4-yl)-5-methyl-5,7-diazaspiro[3.4]octane-6,8-dione] | 562 nM
10 | O=C1NC2(CC(c3cccc(F)c3Cl)C2)C(=O)N1c1cncc2ccccc12 (single isomer, unassigned) [Compound 30, 2-(2-chloro-3-fluorophenyl)-7-(isoquinolin-4-yl)-5,7-diazaspiro[3.4]octane-6,8-dione] | 372 nM
11 | O=C1N(c2cncc3ccccc23)C(=O)C2(CC(C3CCC3)C2)N1Cc1cc(Cl)nc(Cl)c1 (stereo not shown) [Compound 71, 2-cyclobutyl-5-((2,6-dichloropyridin-4-yl)methyl)-7-(isoquinolin-4-yl)-5,7-diazaspiro[3.4]octane-6,8-dione] | 1070 nM
12 | O=C1NC2(CC(c3cccc(F)c3Cl)C2)C(=O)N1c1cncc2ccccc12 (single isomer, unassigned) [Compound 31, 2-(2-chloro-3-fluorophenyl)-7-(isoquinolin-4-yl)-5,7-diazaspiro[3.4]octane-6,8-dione] | 150 nM
13 | O=C1NC2(CC(c3ccccc3Cl)C2)C(=O)N1c1cncc2[nH]c(=O)[nH]c12 (stereo not shown) [Compound 98, 2-(2-chlorophenyl)-7-(2-oxo-2,3-dihydro-1H-imidazo[4,5-c]pyridin-7-yl)-5,7-diazaspiro[3.4]octane-6,8-dione] | 1380 nM
14 | CCN1C(=O)N(c2cncc3ccccc23)C(=O)C12CC(C1CCC1)C2 (stereo not shown) [Compound 75, 2-cyclobutyl-5-ethyl-7-(isoquinolin-4-yl)-5,7-diazaspiro[3.4]octane-6,8-dione] | 2000 nM
15 | O=C1NC2(CC(c3ccccc3Br)C2)C(=O)N1c1cncc2ccccc12 (single isomer, unassigned) [Compound 16, 2-(2-bromophenyl)-7-(isoquinolin-4-yl)-5,7-diazaspiro[3.4]octane-6,8-dione] | 127 nM
16 | N#Cc1ccccc1C1CC2(C1)NC(=O)N(c1cncc3ccccc13)C2=O (stereo not shown) [Compound 24, 2-(7-(isoquinolin-4-yl)-6,8-dioxo-5,7-diazaspiro[3.4]octan-2-yl)benzonitrile] | 86 nM
17 | CC(=O)N1C(=O)N(c2cncc3ccccc23)C(=O)C12CC(C1CCC1)C2 (stereo not shown) [Compound 79, 5-acetyl-2-cyclobutyl-7-(isoquinolin-4-yl)-5,7-diazaspiro[3.4]octane-6,8-dione] | 3080 nM
18 | CC1(c2ccc(F)cc2Cl)CC2(C1)NC(=O)N(c1cncc3ccccc13)C2=O (single isomer, unassigned) [Compound 83, 2-(2-chloro-4-fluorophenyl)-7-(isoquinolin-4-yl)-2-methyl-5,7-diazaspiro[3.4]octane-6,8-dione] | 241 nM
19 | O=C1NC2(CC(c3ccccc3Cl)C2)C(=O)N1c1cnccc1C(F)(F)F (stereo not shown) [Compound 92, 2-(2-chlorophenyl)-7-(4-(trifluoromethyl)pyridin-3-yl)-5,7-diazaspiro[3.4]octane-6,8-dione] | 309 nM
20 | O=C1NC2(CC(c3ccccc3Cl)C2)C(=O)N1c1cccnn1 (stereo not shown) [Compound 81, 2-(2-chlorophenyl)-7-(pyridazin-3-yl)-5,7-diazaspiro[3.4]octane-6,8-dione] | 419 nM

Row | Structure (SMILES) | IC50
21 | O=C1NC2(CC(c3cc(F)ccc3Cl)C2)C(=O)N1c1cncc2ccccc12 (single isomer, unassigned) [Compound 34, 2-(2-chloro-5-fluorophenyl)-7-(isoquinolin-4-yl)-5,7-diazaspiro[3.4]octane-6,8-dione] | 475 nM
22 | NC(=O)CN1C(=O)N(c2cncc3ccccc23)C(=O)C12CC(C1CCC1)C2 (stereo not shown) [Compound 70, 2-(2-cyclobutyl-7-(isoquinolin-4-yl)-6,8-dioxo-5,7-diazaspiro[3.4]octan-5-yl)acetamide] | 944 nM
23 | O=C1CCCN1CN1C(=O)N(c2cncc3ccccc23)C(=O)C12CC(C1CCC1)C2 (stereo not shown) [Compound 78, 2-cyclobutyl-7-(isoquinolin-4-yl)-5-((2-oxopyrrolidin-1-yl)methyl)-5,7-diazaspiro[3.4]octane-6,8-dione] | 3060 nM
24 | CC1(c2ccc(F)cc2Cl)CC2(C1)NC(=O)N(c1cncc3ccccc13)C2=O (single isomer, unassigned) [Compound 84, 2-(2-chloro-4-fluorophenyl)-7-(isoquinolin-4-yl)-2-methyl-5,7-diazaspiro[3.4]octane-6,8-dione] | 806 nM
25 | COc1ccc2cncc(N3C(=O)NC4(CC(C5CCC5)C4)C3=O)c2c1 (stereo not shown) [Compound 57, 2-cyclobutyl-7-(6-methoxyisoquinolin-4-yl)-5,7-diazaspiro[3.4]octane-6,8-dione] | 340 nM
26 | C=CCN1C(=O)N(c2cncc3ccccc23)C(=O)C12CC(C1CCC1)C2 (stereo not shown) [Compound 74, 5-allyl-2-cyclobutyl-7-(isoquinolin-4-yl)-5,7-diazaspiro[3.4]octane-6,8-dione] | 1510 nM
27 | O=C1NC2(CC(c3c(Cl)cccc3Cl)C2)C(=O)N1c1cncc2ccccc12 (single isomer, unassigned) [Compound 29, 2-(2,6-dichlorophenyl)-7-(isoquinolin-4-yl)-5,7-diazaspiro[3.4]octane-6,8-dione] | 165 nM
28 | CC1(c2ccccc2)CC2(C1)NC(=O)N(c1cncc3ccccc13)C2=O (single isomer, unassigned) [Compound 39, 7-(isoquinolin-4-yl)-2-methyl-2-phenyl-5,7-diazaspiro[3.4]octane-6,8-dione] | 926 nM
29 | CN1C(=O)N(c2cncc3ccccc23)C(=O)C12CC(c1ccccc1Br)C2 (stereo not shown) [Compound 67, 2-(2-bromophenyl)-7-(isoquinolin-4-yl)-5-methyl-5,7-diazaspiro[3.4]octane-6,8-dione] | 140 nM
30 | O=C1NC2(CC(c3ccc(F)cc3)C2)C(=O)N1c1cncc2ccccc12 (stereo not shown) [Compound 27, 2-(4-fluorophenyl)-7-(isoquinolin-4-yl)-5,7-diazaspiro[3.4]octane-6,8-dione] | 441 nM
31 | O=C1N(c2cncc3ccccc23)C(=O)C2(CC(C3CCC3)C2)N1Cc1ccccn1 (stereo not shown) [Compound 76, 2-cyclobutyl-7-(isoquinolin-4-yl)-5-(pyridin-2-ylmethyl)-5,7-diazaspiro[3.4]octane-6,8-dione] | 2470 nM
32 | O=C1NC2(CC(c3ccc(F)cc3Cl)C2)C(=O)N1c1cncc2ccccc12 (stereo not shown) [Compound 33, 2-(2-chloro-4-fluorophenyl)-7-(isoquinolin-4-yl)-5,7-diazaspiro[3.4]octane-6,8-dione] | 99 nM
33 | CC1(c2ccccc2Cl)CC2(C1)NC(=O)N(c1cncc3ccccc13)C2=O (stereo not shown) [Compound 96, 2-(2-chlorophenyl)-7-(isoquinolin-4-yl)-2-methyl-5,7-diazaspiro[3.4]octane-6,8-dione] | 408 nM
34 | COc1ccnc(F)c1N1C(=O)NC2(CC(c3ccccc3Cl)C2)C1=O (stereo not shown) [Compound 91, 2-(2-chlorophenyl)-7-(2-fluoro-4-methoxypyridin-3-yl)-5,7-diazaspiro[3.4]octane-6,8-dione] | > 50000 nM
35 | O=C1NC2(CC(c3ccccc3Cl)C2)C(=O)N1c1cncc2cc(F)ccc12 (stereo not shown) [Compound 55, 2-(2-chlorophenyl)-7-(7-fluoroisoquinolin-4-yl)-5,7-diazaspiro[3.4]octane-6,8-dione] | 187 nM

Molecular target: M^pro (Severe acute respiratory syndrome coronavirus 2 (2019-nCoV) (SARS-CoV-2), UniProt P0DTD1)
Assay: not given
Type: binding
Conditions: steady-state analysis, 25° C.

Row | Structure (SMILES) | Kd
36 | O=C1NC2(CC(c3ccccc3Cl)C2)C(=O)N1c1cncc2cccnc12 (stereo not shown) [Compound 50, 2-(2-chlorophenyl)-7-(1,6-naphthyridin-8-yl)-5,7-diazaspiro[3.4]octane-6,8-dione] | 28 nM
37 | O=C1NC2(CC(n3cccn3)C2)C(=O)N1c1cncc2ccccc12 (stereo not shown) [Compound 46, 7-(isoquinolin-4-yl)-2-(1H-pyrazol-1-yl)-5,7-diazaspiro[3.4]octane-6,8-dione] | 930 nM
38 | CN(C)c1cncc(N2C(=O)NC3(CC(c4ccccc4Cl)C3)C2=O)c1 (stereo not shown) [Compound 65, 2-(2-chlorophenyl)-7-(5-(dimethylamino)pyridin-3-yl)-5,7-diazaspiro[3.4]octane-6,8-dione] | 790 nM
39 | CC(C)c1ccncc1N1C(=O)NC2(CC(c3ccccc3Cl)C2)C1=O (stereo not shown) [Compound 63, 2-(2-chlorophenyl)-7-(4-isopropylpyridin-3-yl)-5,7-diazaspiro[3.4]octane-6,8-dione] | 89 nM
40 | O=C1NC2(CC(c3ccccc3Cl)C2)C(=O)N1c1cncnc1 (stereo not shown) [Compound 66, 2-(2-chlorophenyl)-7-(pyrimidin-5-yl)-5,7-diazaspiro[3.4]octane-6,8-dione] | 691 nM
